{"source": "paper PMC8429549", "about": "“Glycosylation reduces the glycan-independent immunomodulatory effect of recombinant Orysata lectin in Drosophila S2 cells” (Scientific Reports, 2021)", "molecular_target": "T1, BOry (recombinant Orysata from E. coli) (Oryza sativa, UniProt Q0JMY8)", "T1 construct": "gene SALT; pColdII, N-terminal poly-His tag kept; E. coli BL21; non-glycosylated", "T1 sequence (Q0JMY8 1-145)": "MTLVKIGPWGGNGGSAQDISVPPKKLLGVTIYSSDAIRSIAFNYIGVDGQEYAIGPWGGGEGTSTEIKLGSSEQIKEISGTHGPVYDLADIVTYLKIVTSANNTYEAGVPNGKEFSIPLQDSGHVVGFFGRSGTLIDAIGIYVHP", "experiment": "competition: FITC-BOry on blot of glycosylated YOry", "format": "binding", "conditions": "20 mM mannose in PBS preincubated 20 min; FITC-labelled lectin; competitive with the N-glycan of YOry"}
{"smiles": "OC[C@H]1OC(O)[C@@H](O)[C@@H](O)[C@@H]1O", "note": "(stereo partly shown) [mannose]", "values": [{"measurement": "competition: FITC-BOry on blot of glycosylated YOry", "result": "Preincubation of the FITC-BOry with mannose, abolished the binding to the glycosylated YOry"}]}
